According to ChEMBL document CHEMBL1201862, “PubChem BioAssay data set” (2004):
Active and inactive are the calls of the source.

How the values were obtained:
Cytochrome P450 2C19 [1] = biological target: T1, Cytochrome P450 2C19 (Homo sapiens, UniProt P33261); assay: Cytochrome panel assay with activity outcomes. Panel member name: p450-cyp2c19 Compounds with AC50 equal or less than 10 uM are considered active; format: functional; settings: read-out: AC50
[2] = inhibitors of Vif binding to APOBEC3G peptide, primary screen, biochemical, TR-FRET, GST-Vif 1-94, biotin-A3G peptide, dose response retest (AID 1117319); format: functional;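 further: TR-FRET signal of purified GST-Vif binding a biotinylated A3G peptide; inhibitors lower the FRET signal by blocking Vif and A3G binding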
Cytochrome P450 2C9 = Cytochrome P450 2C9 (Homo sapiens, UniProt P11712)
Cytochrome P450 2C19 [3] = biological target: T1, Cytochrome P450 2C19; assay: qHTS Assay for Inhibitors and Substrates of Cytochrome P450 2C19. [Related pubchem assays: 410 ]; format: ADME; settings: read-out: Potency
[4] = biological target: Luciferin 4-monooxygenase (Photinus pyralis, UniProt P08659); assay: firefly luciferase enzyme inhibitors, dose response, biochemical, luminescence (AID 1891)
[5] = Luminescence Cell-Based Dose Confirmation HTS to Identify Inhibitors of Platelet Dense Granule Release. [Related pubchem assays: 1663 (Primary HTS), 1678 (Summary of Project)]; format: functional
[6] = Late stage counterscreen results from the probe development effort to identify activators of signal transducer and activator of transcription 1 (STAT1): luminescence-based cell-based dose response assay to identify cytotoxic compounds.; format: functional
[7] = P. falciparum late gametocyte killing, dose response, luminescence (AID 1117278); format: functional, cell-based;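 further: gametocytes exposed to compound for 24 hours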
[8] = Jurkat T cell cytotoxicity, dose response, cytotoxicity control for P. falciparum gametocyte viability project, luminescence (AID 1117277); format: functional, cell-based;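 further: potency reflects loss of cellular ATP meaning fewer viable cells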
[9] = biological target: E3 ubiquitin-protein ligase Mdm2 (Homo sapiens, UniProt Q00987); assay: enhancers of MDM2-luciferase reporter signal, concentration-effect titration, project on inhibitors of MDM2 ubiquitin ligase, cellular assay, luminescent readout, 384-well plate format (AID 1394); format: functional;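 further: MDM2 E3 inhibitors raise luminescence so EC50 is for signal enhancement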
[10] = biological target: Bifunctional protein GlmU (Mycobacterium tuberculosis, UniProt P9WMN3); assay: Inhibitors of Mycobacterial Glucosamine-1-phosphate acetyl transferase (GlmU). Secondary screen.; set-up: species or system Mycobacterium tuberculosis H37Rv
Protein skinhead-1 = biological target: T2, Protein skinhead-1 (Caenorhabditis elegans, UniProt P34707); format: functional
T2 sequence (P34707 whole entry): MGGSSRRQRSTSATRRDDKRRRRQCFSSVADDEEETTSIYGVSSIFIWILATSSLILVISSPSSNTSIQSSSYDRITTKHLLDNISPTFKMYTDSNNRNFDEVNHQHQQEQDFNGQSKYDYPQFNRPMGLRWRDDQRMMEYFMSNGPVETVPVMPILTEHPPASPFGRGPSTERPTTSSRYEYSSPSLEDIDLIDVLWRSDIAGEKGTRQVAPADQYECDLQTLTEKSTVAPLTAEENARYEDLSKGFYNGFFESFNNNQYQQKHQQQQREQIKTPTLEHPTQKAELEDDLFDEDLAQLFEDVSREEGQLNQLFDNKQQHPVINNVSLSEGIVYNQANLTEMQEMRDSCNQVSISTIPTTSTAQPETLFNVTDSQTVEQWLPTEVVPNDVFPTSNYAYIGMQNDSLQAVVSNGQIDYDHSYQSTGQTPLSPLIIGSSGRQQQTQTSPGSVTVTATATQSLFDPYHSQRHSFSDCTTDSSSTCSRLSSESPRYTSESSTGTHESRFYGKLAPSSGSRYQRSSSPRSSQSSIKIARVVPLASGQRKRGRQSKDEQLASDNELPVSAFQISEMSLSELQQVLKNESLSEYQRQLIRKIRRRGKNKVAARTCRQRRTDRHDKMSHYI

NADPH oxidase 1 = NADPH oxidase 1 (Homo sapiens, UniProt Q9Y5S8); assay: Late stage results from the probe development effort to identify inhibitors of NOX1: HEK/293 IC50. [Related pubchem assays: 1796 (Summary AID (NOX1)), 2752 (Primary screen (NOX1 inhibitors, synthesized analogs set 2)), 2664 (Primary screen (NOX1 inhibitors, synthesized analogs)), 1792 (Primary Screen (NOX1)), 2545 (Confirmation screen (NOX1 …; format: functional
Genome polyprotein = Genome polyprotein (Hepatitis C virus, UniProt Q2Q167); assay: HCV core protein dimerization inhibitors, dose response, biochemical, TR-FRET (AID 2159); set-up: species or system Hepacivirus hominis;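 further: blocks dimerization of HCV core protein measured by TR-FRET between tagged core106 pairs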
[11] = biological target: T3, Carboxy-terminal domain RNA polymerase II polypeptide A small phosphatase 1 (Homo sapiens, UniProt Q9GZU7); assay: inhibitors of CTDSP1, concentration-response testing, biochemical assay, absorbance-based, actives from ultra-high-throughput screening (AID 540297); format: functional
T3 sequence (Q9GZU7 whole entry): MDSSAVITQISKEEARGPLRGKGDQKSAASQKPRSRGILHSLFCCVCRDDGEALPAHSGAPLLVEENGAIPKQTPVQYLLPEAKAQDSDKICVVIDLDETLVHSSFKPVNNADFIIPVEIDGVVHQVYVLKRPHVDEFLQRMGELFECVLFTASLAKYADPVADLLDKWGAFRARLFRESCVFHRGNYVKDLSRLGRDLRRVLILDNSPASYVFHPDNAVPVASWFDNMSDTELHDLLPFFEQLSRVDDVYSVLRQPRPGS

[12] = biological target: T4, Probable nicotinate-nucleotide adenylyltransferase (Staphylococcus aureus (strain N315), UniProt P65502); format: functional, Staphylococcus aureus subsp. aureus N315;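 on IC50 Mean: confirmatory dose-response retesting of NadD inhibitor hits first found in an ultra-high-throughput screen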
[13] = biological target: T4, Probable nicotinate-nucleotide adenylyltransferase; format: functional, Staphylococcus aureus subsp. aureus N315; settings: read-out: IC50_Mean

T1 sequence (P33261 whole entry): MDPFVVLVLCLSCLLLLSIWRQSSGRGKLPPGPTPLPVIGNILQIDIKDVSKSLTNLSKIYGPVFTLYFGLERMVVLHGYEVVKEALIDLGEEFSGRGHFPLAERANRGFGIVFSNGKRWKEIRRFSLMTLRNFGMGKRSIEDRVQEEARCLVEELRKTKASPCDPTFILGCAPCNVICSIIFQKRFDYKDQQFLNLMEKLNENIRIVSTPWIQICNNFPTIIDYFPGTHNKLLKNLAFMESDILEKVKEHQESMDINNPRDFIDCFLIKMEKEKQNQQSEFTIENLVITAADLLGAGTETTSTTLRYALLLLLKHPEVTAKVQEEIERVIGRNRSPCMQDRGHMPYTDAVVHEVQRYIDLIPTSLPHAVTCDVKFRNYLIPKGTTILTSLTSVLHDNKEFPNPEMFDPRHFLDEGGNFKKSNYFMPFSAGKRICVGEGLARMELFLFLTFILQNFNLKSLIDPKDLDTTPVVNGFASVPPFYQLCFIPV
T4 sequence (P65502 whole entry): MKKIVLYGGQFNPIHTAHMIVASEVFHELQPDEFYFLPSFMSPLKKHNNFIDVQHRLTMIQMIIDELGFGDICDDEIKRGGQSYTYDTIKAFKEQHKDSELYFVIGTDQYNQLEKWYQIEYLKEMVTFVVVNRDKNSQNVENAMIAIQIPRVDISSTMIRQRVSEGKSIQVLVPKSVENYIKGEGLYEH
Chain of Cytochrome P450 2C9 (P11712 whole entry): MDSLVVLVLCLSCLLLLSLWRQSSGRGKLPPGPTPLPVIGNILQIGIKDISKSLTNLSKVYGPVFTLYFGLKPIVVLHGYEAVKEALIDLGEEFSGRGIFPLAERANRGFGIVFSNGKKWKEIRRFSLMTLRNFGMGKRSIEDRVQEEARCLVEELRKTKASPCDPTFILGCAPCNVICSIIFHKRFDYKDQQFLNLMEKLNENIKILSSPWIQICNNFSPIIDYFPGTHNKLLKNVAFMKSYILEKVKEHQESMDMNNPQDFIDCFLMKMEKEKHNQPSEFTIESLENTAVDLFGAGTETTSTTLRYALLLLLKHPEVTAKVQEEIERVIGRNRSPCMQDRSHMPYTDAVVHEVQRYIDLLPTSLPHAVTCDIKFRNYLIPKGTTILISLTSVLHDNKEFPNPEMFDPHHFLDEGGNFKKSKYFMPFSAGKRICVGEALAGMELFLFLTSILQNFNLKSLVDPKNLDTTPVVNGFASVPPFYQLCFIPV
Chain of Genome polyprotein (Q2Q167 whole entry, the tested form may be a part): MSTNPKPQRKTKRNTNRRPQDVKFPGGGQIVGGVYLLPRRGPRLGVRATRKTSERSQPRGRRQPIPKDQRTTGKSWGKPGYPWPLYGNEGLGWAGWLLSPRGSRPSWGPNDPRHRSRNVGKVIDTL
Chain of NADPH oxidase 1 (Q9Y5S8 whole entry): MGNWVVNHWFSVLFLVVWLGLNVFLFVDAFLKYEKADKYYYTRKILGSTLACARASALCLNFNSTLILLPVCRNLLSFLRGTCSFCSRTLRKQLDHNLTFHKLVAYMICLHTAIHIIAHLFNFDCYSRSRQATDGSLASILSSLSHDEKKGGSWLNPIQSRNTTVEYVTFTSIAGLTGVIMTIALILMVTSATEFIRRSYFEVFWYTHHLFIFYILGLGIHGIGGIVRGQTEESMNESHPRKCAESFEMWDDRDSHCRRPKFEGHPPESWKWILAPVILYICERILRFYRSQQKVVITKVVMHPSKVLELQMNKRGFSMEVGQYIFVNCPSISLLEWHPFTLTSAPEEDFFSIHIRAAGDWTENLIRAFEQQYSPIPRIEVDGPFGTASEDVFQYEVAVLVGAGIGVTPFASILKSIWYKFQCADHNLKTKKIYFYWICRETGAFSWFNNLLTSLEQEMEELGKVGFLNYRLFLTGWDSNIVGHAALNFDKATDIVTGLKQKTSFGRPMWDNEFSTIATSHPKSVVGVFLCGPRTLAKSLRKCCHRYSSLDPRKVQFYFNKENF
Chain of Luciferin 4-monooxygenase (P08659 whole entry): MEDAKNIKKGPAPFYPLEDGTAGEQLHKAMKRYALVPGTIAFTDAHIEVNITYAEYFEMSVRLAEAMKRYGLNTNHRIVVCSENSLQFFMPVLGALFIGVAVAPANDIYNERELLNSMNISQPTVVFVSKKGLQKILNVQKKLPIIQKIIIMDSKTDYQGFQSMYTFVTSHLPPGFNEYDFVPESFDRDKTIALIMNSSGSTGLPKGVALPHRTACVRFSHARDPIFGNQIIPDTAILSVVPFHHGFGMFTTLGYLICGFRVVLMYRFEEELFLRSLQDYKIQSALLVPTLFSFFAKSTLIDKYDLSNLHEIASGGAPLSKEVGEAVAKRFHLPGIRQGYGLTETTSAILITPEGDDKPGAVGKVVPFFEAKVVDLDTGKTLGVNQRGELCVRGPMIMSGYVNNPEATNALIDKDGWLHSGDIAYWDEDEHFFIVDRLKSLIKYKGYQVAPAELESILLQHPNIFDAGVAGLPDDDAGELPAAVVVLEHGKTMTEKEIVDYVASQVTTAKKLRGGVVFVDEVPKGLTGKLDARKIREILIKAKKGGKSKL
Chain of Bifunctional protein GlmU (P9WMN3 whole entry): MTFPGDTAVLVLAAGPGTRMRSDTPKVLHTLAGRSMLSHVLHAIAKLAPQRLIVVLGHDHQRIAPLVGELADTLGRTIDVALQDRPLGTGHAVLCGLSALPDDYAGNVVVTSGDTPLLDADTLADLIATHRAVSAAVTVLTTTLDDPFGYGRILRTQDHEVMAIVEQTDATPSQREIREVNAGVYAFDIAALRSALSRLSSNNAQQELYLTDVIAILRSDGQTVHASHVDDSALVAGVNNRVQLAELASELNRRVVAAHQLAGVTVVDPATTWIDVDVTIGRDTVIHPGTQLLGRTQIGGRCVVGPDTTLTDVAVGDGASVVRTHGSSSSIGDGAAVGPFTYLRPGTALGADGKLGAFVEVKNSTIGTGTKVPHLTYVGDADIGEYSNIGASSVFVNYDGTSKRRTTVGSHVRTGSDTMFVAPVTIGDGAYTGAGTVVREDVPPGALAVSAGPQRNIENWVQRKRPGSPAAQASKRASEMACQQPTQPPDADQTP
Chain of E3 ubiquitin-protein ligase Mdm2 (Q00987 whole entry): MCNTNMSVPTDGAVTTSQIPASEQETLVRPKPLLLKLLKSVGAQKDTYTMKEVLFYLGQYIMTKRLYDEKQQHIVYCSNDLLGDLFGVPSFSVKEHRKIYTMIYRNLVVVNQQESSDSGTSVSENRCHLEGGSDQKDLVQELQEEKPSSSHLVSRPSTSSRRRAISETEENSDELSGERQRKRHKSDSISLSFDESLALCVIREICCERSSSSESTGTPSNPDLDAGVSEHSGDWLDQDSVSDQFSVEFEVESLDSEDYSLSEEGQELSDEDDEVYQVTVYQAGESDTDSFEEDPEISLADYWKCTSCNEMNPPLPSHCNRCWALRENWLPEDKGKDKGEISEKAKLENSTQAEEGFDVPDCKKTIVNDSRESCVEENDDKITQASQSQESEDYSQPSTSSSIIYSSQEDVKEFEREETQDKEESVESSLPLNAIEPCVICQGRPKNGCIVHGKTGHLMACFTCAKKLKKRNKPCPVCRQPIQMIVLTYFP

SMILES: COC(=O)[C@@]1(Cc2ccc(OC)cc2)[C@H]2c3cc(C(=O)N(C)C)n(C[C@H](O)CO)c3C[C@H]2CN1C(=O)c1ccccc1
- AC50 (Cytochrome P450 2C19 [1]): 31.6 µM (inconclusive)
- IC50 [2]: > 100 µM (active)
- AC50 (Cytochrome P450 2C9): 31.6 µM (inconclusive)

SMILES: CC(C)C[C@@H](CC(=O)N[C@H](CC(=O)N[C@@H]1CCCC[C@H]1C(=O)N[C@H](CC(=O)N[C@@H](CCC(=O)O)CC(=O)O)CC(C)C)C(C)C)NC(=O)[C@@H]1CNCC[C@H]1N
- AC50 (Cytochrome P450 2C19 [3]): 31.6 µM (inconclusive)

SMILES: O=C(/C=C/Nc1ccccc1F)c1ccc(Br)cc1
- EC50 [4]: 74.5 µM (active)
- EC50 [5]: > 112 µM (not active)
- IC50 [6]: > 55.7 µM (not active)

SMILES: C=CCn1c(SCC(=O)NCc2ccc3c(c2)OCO3)nc2scc(-c3ccc(F)cc3)c2c1=O
- IC50 [7]: > 109 µM (inactive)
- IC50 [8]: 68.6 µM (inactive)

SMILES: CCN(CC)c1ccc(/C=C2/C(=O)c3ccc(C(=O)O)cc3C2=O)cc1
- EC50 [9]: 0.07 µM (active)
- IC50 [10]: 34.3 µM (active)
- IC50 (Protein skinhead-1): 20.9 µM (active)

SMILES: O=C(Oc1ccccc1N1CCCCC1)c1sc2ccccc2c1Cl
- IC50 (NADPH oxidase 1): 2.31 µM (active)

SMILES: Cc1ccc(NC(=O)c2cc(-c3ccco3)nc3ccccc23)cc1S(=O)(=O)N1CCOCC1
- IC50 (Genome polyprotein): > 49.8 µM (not active)
- IC50 [11]: 5.51 µM (active)
- IC50 [12]: 8.01 µM (active)
- IC50 [13]: 26.6 µM (active)
